# Tests used:
# HRAS = HRAS (Homo sapiens, UniProt P01112); test: SOS-catalyzed nucleotide exchange assay (Procedure A, TR-FRET); format: biochemical; details: 60 min preincubation, SOS + GTP, read-out: HRAS GNE IC50
# Description: (§1) Procedure for SOS-Catalyzed Nucleotide Exchange Assay for KRAS-G12C/D/V, G13D, HRAS, and NRAS (Procedure A)
# (§2) Recombinant KRAS-G12C protein used in this assay has an additional triple mutation (C51S/C80L/C118S), whereas KRAS-G12D/V, G13D, HRAS and NRAS are in context of their WT protein sequence background. Specifically, the SOS-catalyzed nucleotide exchange assay utilizes a preformed TR-FRET complex containing a specific biotinylated RAS protein (KRAS-G12C/V/D, G13D, HRAS, NRAS; described above) with Bodipy-GDP, and Terbium-streptavidin. Compounds are preincubated with this complex for 60 minutes. Subsequently, recombinant human SOS protein and unlabeled GTP are added to initiate the exchange reaction. Small molecule inhibitors stabilize the Bodipy-GDP complex whereas the untreated protein rapidly exchanges Bodipy-GDP for unlabeled GTP resulting in reduced TR-FRET signal.
# (§3) To assemble the preformed TR-FRET complexes, each biotinylated RAS protein is diluted to 2 μM in an EDTA Buffer (20 mM HEPES pH 7.5, 50 mM sodium chloride, 10 mM EDTA, and 0.01% Tween) and incubated at room temperature for one hour. This mixture is then further diluted to 90 nM in an Assay Buffer (20 mM HEPES pH 7.5, 150 mM sodium chloride, 10 mM magnesium chloride, and 0.005% Tween) containing 15 nM of Terbium-Streptavidin (Invitrogen, catalog #PV3577) and 900 nM of Bodipy-GDP (Invitrogen, catalog #G22360) and incubated at room temperature for six hours. It should be noted that this preformed TR-FRET complex for each of the RAS protein were made ahead of time, aliquoted and stored at −80° C. until the day of the experiment.
# (§4) Each test compound (10 mM stock in DMSO) is diluted in DMSO to make a final-10-point, 3-fold dilution and is acoustically dispensed into a 384-well assay plate (Corning, catalog #3820) using an Echo 550 (Labcyte). Each well of the assay plate receives 3 μL of a specific 3× RAS preformed TR-FRET complex and 3 μL of Assay Buffer and is incubated at room temperature for 60 minutes (preincubation time). Each well then receives 3 μL of 3× recombinant human SOS protein and GTP (Sigma, G8877) in Assay Buffer and is incubated at room temperature for 30 minutes (G13D), 60 minutes (G12C/D, H/NRAS) or 90 minutes for G12V. The final reaction in each well of […] consists of 3 mM GTP, specific Ras and SOS proteins in the following concentrations: KRAS-G12C/SOS=3 nM/40 nM, KRAS-G12D/SOS=1 nM/40 nM, KRAS-G12V/SOS=1.25 nM/160 nM, KRAS-G13D/SOS=1.25 nM/0 nM, HRAS & NRAS=1.25 nM/40 nM.
# (§5) The time-resolved fluorescence resonance energy transfer (TR-FRET) signal is measured on an Envision (PerkinElmer) plate reader: Excitation filter=340 nm; emission1=495 nm; emission2=520 nm; dichroic mirror=D400/D505; delay time=[…]. The signal of each well is determined as the ratio of the emission at 520 nm to that at 495 nm. Percent effect of each well is determined after normalization to control wells containing DMSO (no effect) or a saturating concentration of inhibitor (max effect). The apparent effect as a function of compound concentration is fit to a four-parameter logistic equation.
# NRAS = NRAS (Homo sapiens, UniProt P01111); test: as above; format: biochemical; details: 60 min preincubation, SOS + GTP, read-out: NRAS GNE IC50
# NRAS, sequence (P01111 with tags, fused parts or gaps): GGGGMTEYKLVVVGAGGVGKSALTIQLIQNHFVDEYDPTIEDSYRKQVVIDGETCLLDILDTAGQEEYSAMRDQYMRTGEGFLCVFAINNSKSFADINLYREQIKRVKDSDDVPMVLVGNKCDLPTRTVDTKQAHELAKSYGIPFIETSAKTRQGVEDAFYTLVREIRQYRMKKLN
# Description: as §1, §2, §3, §4, §5
# [1] = test system: PANC08.13 cells (homozygous KRAS-G12D activating mutation); test: Cellular phospho-ERK assay in G12D cell line; format: cell-based; details: Homo sapiens, PANC-08-13, 2 hours compound incubation, ratio of p-ERK vs. total ERK, read-out: PANC 0813 pERK IC50
# In short: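 Cells (10,000-15,000/well) were seeded overnight, then treated for 2 h at 37 °C with a 10-point 1:3 titration from 30 μM final. Lysates were assayed by AlphaLISA SureFire Ultra multiplex, with the p-ERK/total-ERK ratio as read-out; IC50 came from a 4-parameter logistic fit.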
# KRAS-G13D = target: T1, KRAS-G13D (Homo sapiens, UniProt P01116, G13D); test: SOS-catalyzed nucleotide exchange assay (Procedure A, TR-FRET); format: biochemical; details: 60 min preincubation, GTP, read-out: KRAS G13D GNE IC50
# T1 construct: N-terminal biotin-acceptor peptide […]
# T1 sequence (P01116 with tags, fused parts or gaps isoform P01116-2 G13D): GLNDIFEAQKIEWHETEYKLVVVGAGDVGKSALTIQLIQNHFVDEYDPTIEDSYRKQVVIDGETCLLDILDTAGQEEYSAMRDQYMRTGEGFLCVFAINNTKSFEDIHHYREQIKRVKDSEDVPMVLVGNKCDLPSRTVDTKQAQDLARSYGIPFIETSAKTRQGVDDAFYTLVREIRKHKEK
# In short: (§6)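 Preformed biotinylated RAS–Bodipy-GDP/Tb-streptavidin complex preincubated with compound 60 min at room temperature, then SOS plus GTP (3 mM final) added. Exchange times: G13D 30 min, G12C/D 60 min, G12V 90 min. Final RAS/SOS: G12C 3 nM/40 nM, G12D 1 nM/40 nM, G12V 1.25 nM/160 nM, G13D 1.25 nM/0 nM. TR-FRET 520/495 ratio, four-parameter fit.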
# KRAS-G12V = target: T2, KRAS-G12V (Homo sapiens, UniProt P01116, G12V); test: as above; format: biochemical; details: 60 min preincubation, SOS + GTP, read-out: KRAS G12V GNE IC50
# T2 construct: N-terminal biotin-acceptor peptide […]
# T2 sequence (P01116 with tags, fused parts or gaps isoform P01116-2 G12V): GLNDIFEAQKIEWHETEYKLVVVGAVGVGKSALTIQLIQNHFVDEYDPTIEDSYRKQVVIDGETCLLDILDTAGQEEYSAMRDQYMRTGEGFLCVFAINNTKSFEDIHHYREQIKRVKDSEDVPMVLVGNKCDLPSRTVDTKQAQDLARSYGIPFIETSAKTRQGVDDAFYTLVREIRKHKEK
# In short: as §6
# [2] = target: T3, KRAS-G12C (C51S/C80L/C118S) (Homo sapiens, UniProt P01116, C118S/C51S/C80L/G12C); test: as above; format: biochemical; details: 60 min preincubation, SOS + GTP, read-out: KRAS G12C GNE IC50
# T3 construct: N-terminal biotin-acceptor peptide […]
# T3 sequence (P01116 with tags, fused parts or gaps isoform P01116-2 G12C/C51S/C80L/C118S): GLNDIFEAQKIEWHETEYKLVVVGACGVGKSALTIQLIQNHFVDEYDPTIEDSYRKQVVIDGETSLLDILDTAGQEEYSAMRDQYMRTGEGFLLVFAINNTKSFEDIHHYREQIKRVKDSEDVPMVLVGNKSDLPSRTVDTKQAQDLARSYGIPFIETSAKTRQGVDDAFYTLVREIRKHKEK
# In short: as §6
# KRAS-G12D = target: T4, KRAS-G12D (Homo sapiens, UniProt P01116, G12D); test: as above; format: biochemical; details: 60 min preincubation, SOS + GTP, read-out: KRAS G12D GNE IC50
# T4 construct: N-terminal biotin-acceptor peptide […]
# T4 sequence (P01116 with tags, fused parts or gaps isoform P01116-2 G12D): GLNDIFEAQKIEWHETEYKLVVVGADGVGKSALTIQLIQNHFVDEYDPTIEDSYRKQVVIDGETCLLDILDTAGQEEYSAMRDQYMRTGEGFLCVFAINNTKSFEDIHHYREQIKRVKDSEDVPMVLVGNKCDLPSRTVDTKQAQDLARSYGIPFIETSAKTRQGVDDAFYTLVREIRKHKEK
# In short: as §6
# [3] = test system: SW620 cells (homozygous KRAS-G12V activating mutation); test: Cellular phospho-ERK assay in G12V cell line; format: cell-based; details: Homo sapiens, SW-620, 2 hours compound incubation, ratio of p-ERK vs. total ERK, read-out: SW620 pERK IC50
# Description: Procedure for Cellular Phospho-ERK Assay in G12D and G12V Cell Lines
# PANC08.13 cells (ATCC® CRL-2551™), containing homozygous KRAS-G12D activating mutation, were cultured in growth medium made of RPMI1640-GlutaMAX™—I (ThermoFisher Scientific 61870) containing 15% heat inactivated fetal bovine serum (ThermoFisher Scientific 10091148)). SW620 cells (ATCC® […]), containing homozygous KRAS-G12V activating mutation, were cultured in growth medium that contains RPMI 1640-GlutaMAX™—I (ThermoFisher Scientific 61870) containing 10% heat inactivated fetal bovine serum (ThermoFisher Scientific 10091148).
# Cells for the assay were harvested in growth medium after TrypLE (ThermoFisher scientific 12604021) digestion and were seeded in a 384-well collagen coated cell culture plate (Corning 356702) at a density of 10,000-15,000 cells/20 uL/well, and incubated at 37° C., 5% CO2 overnight. The compound (with 10 mM stock concentration) dose-response titrations were prepared [30 μM final ERK detection assay concentration and 1:3 dilutions, 10-point dose response] and appropriate amounts (270 nL) of test compounds were dispensed in a 384-well intermediate plate using an Echo 550 liquid handler. 30 uL/well of RPMI medium 1640-GlutaMAX™—I was added to the intermediate plate and the contents of the intermediate plate (10 uL/well) were then transferred to the 384-well collagen coated cell culture plate, which was incubated at 37° C., 5% CO2 for 2 hours. After removal of medium from the collagen coated cell culture plate, cells were lysed in lysis buffer from Alpha SureFire® Ultra™ Multiplex p-ERK and total ERK assay kit (PerkinElmer MPSU-PTERK) containing Halt™ Protease and Phosphatase inhibitor cocktail (ThermoFisher Scientific 78446) at room temperature with constant shaking at 300 rpm for 30 minutes. The cell lysates were then transferred to an OptiPlate-384 plate (PerkinElmer 6005620), and the phosphorylation of ERK (p-ERK) and total ERK levels were detected by Alpha SureFire® Ultra™ Multiplex p-EEK kit and total ERK assay kit (PerkinElmer MPSU-PTERK) following the manufacturer's protocol. Assay plates were read on a EnVision Multimode Plate Reader (PerkinElmer), and the ratio of p-ERK vs. total ERK in each well was used as the final readout. Dose response curves were analyzed using a 4-parameter logistic model to calculate IC50 values using Spotfire software.
# HRAS, sequence (P01112 with tags, fused parts or gaps): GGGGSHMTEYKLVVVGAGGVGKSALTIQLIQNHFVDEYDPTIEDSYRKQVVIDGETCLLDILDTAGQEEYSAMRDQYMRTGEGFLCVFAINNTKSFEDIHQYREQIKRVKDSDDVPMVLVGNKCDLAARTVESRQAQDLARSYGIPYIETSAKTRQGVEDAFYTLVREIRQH
Structure (SMILES),IC50 (HRAS) [nM],IC50 (NRAS) [nM],IC50 [1] [nM],IC50 (KRAS-G13D) [nM],IC50 (KRAS-G12V) [nM],IC50 [2] [nM],IC50 (KRAS-G12D) [nM],IC50 [3] [nM]
"Cc1cc(N)nc(-c2c(Cl)cc3c(N4CCCOCC4)nc(OC[C@@]45CCCN4C[C@H](F)C5)nc3c2F)c1C(F)(F)F [compound 40, 6-(6-chloro-8-fluoro-2-(((2R,7aS)-2-fluorotetrahydro-1H-pyrrolizin-7a(5H)-yl)methoxy)-4-(1,4-oxazepan-4-yl)quinazolin-7-yl)-4-methyl-5-(trifluoromethyl)pyridin-2-amine]",> 11100,> 11100,807,204,78.2,83.3,351,628
"CC1COCCCN1c1nc(OC[C@@]23CCCN2C[C@H](F)C3)nc2c(F)c(-c3ccc(F)c4sc(N)c(C#N)c34)c(Cl)cc12 (stereo partly drawn) [compound 5, 2-amino-4-(6-chloro-8-fluoro-2-(((2R,7aS)-2-fluorotetrahydro-1H-pyrrolizin-7a(5H)-yl)methoxy)-4-(3-methyl-1,4-oxazepan-4-yl)quinazolin-7-yl)-7-fluorobenzo[b]thio-phene-3-carbonitrile]",> 11100,> 11100,123,13.4,6.15,18,15.2,120
"CC1(F)COCCN(c2nc(OC[C@@]34CCCN3C[C@H](F)C4)nc3c(F)c(-c4ccc(F)c5sc(N)c(C#N)c45)c(Cl)cc23)C1 (stereo partly drawn) [compound 13, 2-amino-4-(6-chloro-8-fluoro-4-(6-fluoro-6-methyl-1,4-oxazepan-4-yl)-2-(((2R,7aS)-2-fluorotetrahydro-1H-pyrrolizin-7a(5H)-yl)methoxy)quinazo-lin-7-yl)-7-fluorobenzo[b]thio-phene-3-carbonitrile]",> 11100,> 11100,208,21.9,10.4,32.2,46.7,152
"CC1COCCN(c2nc(OC[C@@]34CCCN3C[C@H](F)C4)nc3c(F)c(-c4ccc(F)c5sc(N)c(C#N)c45)c(Cl)cc23)C1 (stereo partly drawn) [compound 8, 2-amino-4-(6-chloro-8-fluoro-2-(((2R,7aS)-2-fluorotetrahydro-1H-pyrrolizin-7a(5H)-yl)methoxy)-4-(6-methyl-1,4-oxazepan-4-yl)quinazolin-7-yl)-7-fluorobenzo[b]thio-phene-3-carbonitrile]",> 11100,> 11100,138,12.8,7.59,20.8,9.92,104
"C[C@H]1CCCCCN1c1nc(OC[C@@]23CCCN2C[C@H](F)C3)nc2c(F)c(-c3ccc(F)c4sc(N)c(C#N)c34)c(Cl)cc12 [Ex. 3, 2-amino-4-(6-chloro-8-fluoro-2-(((2R,7aS)-2-fluorotetrahydro-1H-pyrrolizin-7a(5H)-yl)methoxy)-4-((S)-2-methylazepan-1-yl)quinazolin-7-yl)-7-fluorobenzo[b]thio-phene-3-carbonitrile]",> 11100,> 11100,776,54.6,40.3,30.9,113,806
"C[C@@H]1CCOCCN1c1nc(OC[C@@]23CCCN2C[C@H](F)C3)nc2c(F)c(-c3ccc(F)c4sc(N)c(C#N)c34)c(Cl)cc12 [compound 7, 2-amino-4-(6-chloro-8-fluoro-2-(((2R,7aS)-2-fluorotetrahydro-1H-pyrrolizin-7a(5H)-yl)methoxy)-4-((R)-5-methyl-1,4-oxazepan-4-yl)quinazolin-7-yl)-7-fluorobenzo[b]thio-phene-3-carbonitrile]",> 11100,> 11100,192,8.55,6,13.1,9.18,67.4
"N#Cc1c(N)sc2c(F)ccc(-c3c(Cl)cc4c(N5CCCOCC5)nc(OC[C@@]56CCCN5C[C@H](F)C6)nc4c3F)c12 [Ex. 4, 2-amino-4-(6-chloro-8-fluoro-2-(((2R,7aS)-2-fluorotetrahydro-1H-pyrrolizin-7a(5H)-yl)methoxy)-4-(1,4-oxazepan-4-yl)quinazolin-7-yl)-7-fluorobenzo[b]thio-phene-3-carbonitrile]",> 11100,> 11100,56.2,7.62,3.33,15.5,7.62,48.6
